Legend:
[1] = system: central and peripheral neurons grown in culture; settings: death induced by reduced phosphatidyl inositol pathway activity (Cross et al.); cited from earlier work
GSK-3 = settings: literature report; cited from earlier work
[2] = system: perfused human ocular anterior segments; test: Outflow rate in perfused human ocular anterior segments maintained in culture
Procedure: (§1) Recently it has been discovered that frizzled related protein (FRP) is differentially expressed in a number of glaucomatous trabecular meshwork cell lines. […] The decreased flow rate in the cultured anterior segments models an increase in resistance to outflow (increase in intraocular pressure) in intact eye.
Human ocular anterior segments are perfused with Dulbecco's modified Eagle's medium (DMEM) at a constant pressure of 11 mm Hg. The outflow rate of each eye is measured by weighing its reservoir at specified periods. After a stabilization period, the eyes are perfused with either vehicle or FRP-1 (10 μg/ml) and their outflow rates monitored for 2-5 days. […] Inhibitor is added and the anterior segment is perfused for an additional 2-4 days. Outflow rate is measured by weighing its reservoir at specific periods.

β-catenin = β-catenin protein levels in ciliary body and trabecular meshwork of perfused anterior segments; design: species or system human; settings: ciliary body and trabecular meshwork (TM) after FRP-1 perfusion
Source text: as §1

Row | Molecule | protection of neurons from death [1] | GSK-3 inhibition (GSK-3) | also measured
1 | O=C1NC(=O)C(c2ccccc2[N+](=O)[O-])=C1Nc1ccc(O)c(Cl)c1 [SB-415286] | protected both central and peripheral neurons | – | –
2 | CN(C)CCCn1cc(C2=C(c3c[nH]c4ccccc34)C(=O)NC2=O)c2ccccc21 [GF1092] | – | inhibitors of GSK-3 | –
3 | Cn1cc(C2=C(c3ccc(Cl)cc3Cl)C(=O)NC2=O)c2ccccc21 [SB216763] | protected both central and peripheral neurons | – | –
4 | Cn1cc(C2=C(c3cn(CCCSC(=N)N)c4ccccc34)C(=O)NC2=O)c2ccccc21 [Ro 31-8220] | – | inhibitors of GSK-3 | –
5 | FRP-1: frizzled related protein, secreted protein that antagonizes the Wnt signaling pathway (protein, UniProt Q8N474 32-314, looked up) Secreted frizzled-related …: SEYDYVSFQSDIGPYQSGRFYTKPPQCVDIPADLRLCHNVGYKKMVLPNLLEHETMAEVKQQASSWVPLLNKNCHAGTQVFLCSLFAPVCLDRPIYPCRWLCEAVRDSCEPVMQFFGFYWPEMLKCDKFPEGDVCIAMTPPNATEASKPQGTTVCPPCDNELKSEAIIEHLCASEFALRMKIKEVKKENGDKKIVPKKKKPLKLGPIKKKDLKKLVLYLKNGADCPCHQLDNLSHHFLIMGRKVKSQYLLTAIHKWDKKNKEFKNFMKKMKNHECPTFQSVFK | – | – | aqueous humor outflow ([2]; FRP-1 10 μg/ml, constant pressure 11 mm Hg, outflow monitored 2-5 days): decrease in aqueous humor outflow; flowrate ([2]; perfusion of FRP-1 through perfused human ocular anterior segments in culture): decrease in flowrate; β-catenin protein levels (β-catenin): decrease in β-catenin protein levels

Source: patent US20090312390A1, “INHIBITORS OF GLYCOGEN SYNTHASE KINASE-3 (GSK-3) FOR TREATING GLAUCOMA” (ALCON, INC., priority 2001, published 2009)
